# Assay results taken from patent publication US20130190407A1, “CALCIUM RECEPTOR-ACTIVE MOLECULES” (NPS Pharmaceuticals, Inc., priority 1991, published 2013).
# Where two headings read alike, the source gives them in different places.
# Key:
# Sprague-Dawley rats = assay: Serum/plasma Ca2+, PTH and calcitonin in rats in vivo; design: species or system rat; conditions: for ED50: Rattus norvegicus, po, normal adult rats
# Method: Compounds shown to activate the bovine parathyroid cell calcium receptor in vitro were tested for hypocalcemic activity in vivo. Male Sprague-Dawley rats (200 g) were maintained on a low calcium diet for one week prior to receiving test substance or vehicle as control. Blood was collected from the tail vein three hours after the intra-peritoneal administration of NPS 467. […] Serum total calcium, albumin and phosphate were measured by techniques well known in the art.
# Rats (male, Sprague-Dawley, 250-300 g) were fed standard rat chow and fasted overnight prior to the experiment. NPS R-467 was suspended in corn oil, and administered as a single oral dose through a gavage needle. Three hours later a sample of blood was taken from the tail vein and assessed for ionized Ca^2+ levels.
# [1] = target: T1, human parathyroid cell calcium receptor (Homo sapiens, UniProt P41180, E1011Q/Q926R); assay: Cl- current in Xenopus oocytes injected with pHuPCaR 5.2; assay type: cell-based; conditions: 3 to 30 μM; 0.3 mM extracellular Ca2+
# T1 construct: appear to be full-length clones corresponding to the 5 Kb mRNA; expressed in transfected cells; host or cells: Xenopus laevis oocytes injected with pHuPCaR 5.2
# T1 sequence (P41180 20-1088 isoform P41180-2 Q936R/E1021Q): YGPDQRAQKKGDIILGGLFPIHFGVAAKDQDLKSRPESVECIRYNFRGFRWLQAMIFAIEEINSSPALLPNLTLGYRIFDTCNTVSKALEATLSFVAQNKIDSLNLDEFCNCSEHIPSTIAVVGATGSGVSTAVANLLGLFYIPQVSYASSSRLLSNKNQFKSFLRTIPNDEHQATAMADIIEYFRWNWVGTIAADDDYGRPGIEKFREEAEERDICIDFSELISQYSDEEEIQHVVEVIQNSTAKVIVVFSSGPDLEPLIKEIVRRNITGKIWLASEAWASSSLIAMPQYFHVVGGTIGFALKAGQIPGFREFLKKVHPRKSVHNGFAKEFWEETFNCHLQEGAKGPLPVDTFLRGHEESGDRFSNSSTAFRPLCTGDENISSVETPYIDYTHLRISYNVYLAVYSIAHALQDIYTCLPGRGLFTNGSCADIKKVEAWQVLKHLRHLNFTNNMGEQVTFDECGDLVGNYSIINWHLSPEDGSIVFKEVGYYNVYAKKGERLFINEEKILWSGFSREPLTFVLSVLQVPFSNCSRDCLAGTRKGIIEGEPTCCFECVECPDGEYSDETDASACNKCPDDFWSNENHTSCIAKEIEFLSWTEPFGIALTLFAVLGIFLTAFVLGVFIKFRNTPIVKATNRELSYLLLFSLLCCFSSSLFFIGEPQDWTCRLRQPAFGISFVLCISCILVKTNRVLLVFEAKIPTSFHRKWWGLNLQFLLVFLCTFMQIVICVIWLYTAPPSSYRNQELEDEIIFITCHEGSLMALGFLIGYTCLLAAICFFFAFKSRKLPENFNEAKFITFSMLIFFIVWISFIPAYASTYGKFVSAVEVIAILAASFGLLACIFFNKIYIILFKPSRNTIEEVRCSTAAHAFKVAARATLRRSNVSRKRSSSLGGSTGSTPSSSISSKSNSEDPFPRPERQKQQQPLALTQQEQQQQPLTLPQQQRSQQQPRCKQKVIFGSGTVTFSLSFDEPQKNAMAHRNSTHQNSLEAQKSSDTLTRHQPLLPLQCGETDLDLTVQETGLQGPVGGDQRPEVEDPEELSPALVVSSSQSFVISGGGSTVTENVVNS
# Method: Xenopus oocytes were injected with pHuPCaR 5.2, the 5.2 Kb cDNA encoding a parathyroid cell calcium receptor derived from a human parathyroid cell adenoma. (See Example 27.) After two to three days, Cl^− currents were measured in the oocytes using a two-electrode voltage clamp.
Structure (SMILES),potency in lowering serum Ca2+ in vivo (Sprague-Dawley rats; 5 mg/kg body weight),"serum ionized Ca2+ (Sprague-Dawley rats; single oral dose in corn oil, three hours)",ED50 (Sprague-Dawley rats; read-out: ED50 for depression of plasma Ca2+),ED50 (Sprague-Dawley rats; read-out: ED50 for depression of plasma PTH),ED50 (Sprague-Dawley rats; read-out: ED50 for stimulation of calcitonin),Cl- current [1]
"COc1cccc([C@@H](C)NCCCc2ccccc2)c1 (single isomer, unassigned) [NPS R-467]",more potent than the S-isomer in lowering serum Ca^2+ in vivo,dose-dependent reduction in serum levels of ionized Ca^2+,–,–,–,–
"COc1cccc([C@@H](C)NCCCc2ccccc2Cl)c1 [NPS R-568, (R)-(+)-N-[3-(2-chlorophenyl)propyl]-α-methyl-3-methoxybenzylamine]",–,–,8 mg/kg,1 mg/kg,40 mg/kg,evoked increases in the Cl^− current
